# In PubChem BioAssay (NCI):
# Values joined by “and” are separate entries in the source; they are usually repeats but may differ in a detail not shown here. Equal entries are not always repeated.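 Following 48 hours of exposure in 96-well plates, responses at five concentrations were used to interpolate endpoints linearly. GI50 marks 50% less growth. TGI marks complete inhibition of growth.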
# Key:
# Experiment in all cases: inhibition of tumour cell growth, NCI panel, 48 h
# SK-MEL-5 melanoma = tested on: SK-MEL-5 melanoma
# A549 NSCLC = tested on: A549 NSCLC
# SNB-19 CNS = tested on: SNB-19 CNS
# HCT-116 colon = tested on: HCT-116 colon
# NCI-H522 lung = tested on: NCI-H522 lung
# LOX IMVI melanoma = tested on: LOX IMVI melanoma
# RXF 393 renal = tested on: RXF 393 renal
# SF-268 CNS = tested on: SF-268 CNS
# SF-539 CNS = tested on: SF-539 CNS
# KM12 colon = tested on: KM12 colon
SMILES,TGI (SK-MEL-5 melanoma) [µM],TGI (A549 NSCLC) [µM],TGI (SNB-19 CNS) [µM],TGI (HCT-116 colon),TGI (NCI-H522 lung) [µM],TGI (LOX IMVI melanoma),TGI (RXF 393 renal) [µM],TGI (SF-268 CNS),TGI (SF-539 CNS) [µM],GI50 (SK-MEL-5 melanoma) [µM],GI50 (A549 NSCLC) [µM],GI50 (KM12 colon) [µM],TGI (KM12 colon) [µM],GI50 (SNB-19 CNS) [µM],GI50 (HCT-116 colon) [µM],GI50 (NCI-H522 lung) [µM],GI50 (LOX IMVI melanoma) [µM],GI50 (RXF 393 renal) [µM],GI50 (SF-539 CNS) [µM],GI50 (SF-268 CNS) [µM]
C=CCNC1=C(C(=O)OCC)C(=O)CO1,> 100,> 100,> 100,> 100 µM,> 100,> 100 µM,> 100,> 100 µM,> 100,–,–,–,–,–,–,–,–,–,–,–
CC1C=C(OC(=O)c2ccccc2)C(=O)C(n2cc(F)c(=O)n(C(=O)c3ccccc3)c2=O)O1 (configuration not stated),> 100,> 100,> 100,> 100 µM,–,55 µM,81.7,–,> 100,–,–,–,–,–,–,–,–,–,–,–
C=C(CNCCc1ccc(O)cc1)[C@@H]1CC[C@]2(CO)CC[C@]3(C)[C@H](CC[C@@H]4[C@@]5(C)CCC(=O)C(C)(C)[C@@H]5CC[C@]43C)[C@@H]12,2.99,2.99,3.02,3.03 µM,3.23,2.97 µM,2.59,–,3.17,1.63,1.63,1.82,3.61,1.62,1.67,1.69,1.6,1.28,1.75,–
O=C1/C(=C/c2ccccc2)SC(=Nc2ccccc2)N1Nc1ccccc1,28.8,> 100,> 100,> 100 µM,84.8,–,30,> 100 µM,99.5,14.4,12,19,> 100,13.5,4.49,15.5,–,8.44,27.2,31.3
COc1ccc(NC(=O)C(=O)NNC(=O)c2sc(NNC(C)=O)nc2C)c([N+](=O)[O-])c1,> 100,> 100,> 100,> 100 µM,> 100,> 100 µM,–,> 100 µM,> 100,–,–,–,> 100,–,–,–,–,–,–,–
C/C=C(\C)C(=O)O[C@@H]1C(O)[C@H]2OC(COC(=O)CCC(=O)CCCCCC[C@H](CCCCC)O[C@@H]3OC(C)[C@H](OC(C)=O)C(O)[C@H]3O2)[C@H]1OC(=O)/C=C/c1ccccc1 (some centres not stated),–,32.3,15.5,> 33.6 µM,2.29,–,4.99,15.6 µM,1.96,< 0.01,< 0.01,< 0.0138,> 100,0.156,< 0.01,0.0265,–,< 0.01,< 0.01,0.101
O=C(O)c1cc2ccccc2c(N=Nc2c([N+](=O)[O-])cc([N+](=O)[O-])cc2S(=O)(=O)O)c1O,> 100,> 100,> 100,> 100 µM,> 100,> 100 µM,> 100,> 100 µM,–,–,–,–,> 100,–,–,–,–,–,–,–
COC(=O)[C@]12CC[C@@H](C)[C@H](C)[C@@H]1C1=CC[C@@H]3[C@@]4(C)C(C=O)=C[C@@](C)(COC(C)=O)[C@@H]4[C@H](O)C[C@@]3(C)[C@]1(C)CC2,3.19,12.3,14.8,–,8.83,2.91 µM,3.03,9.14 µM,4.14,1.66,3.29,2.35,6.93,3.22,–,3.46,1.57,1.56,1.93,2.65
COC(=O)C1=C(C(=O)OC)C23C=CC=CC24C(C(=O)OC)=C(C(=O)OC)C4C1C3 (configuration not stated),> 100,> 100,> 100,> 100 µM,> 100,–,> 100,> 100 µM,> 100,–,–,–,> 100,–,–,–,–,–,–,–
CO[C@H]1[C@H](O)[C@H](O[C@H]2CC[C@@]3(C)[C@H](CC[C@@H]4[C@@H]3CC[C@]3(C)[C@@H](C5=CC(=O)OC5)CC[C@]43O)C2)O[C@@H](C)[C@@H]1O,0.00194,0.00078,0.00324,0.00229 µM and < 0.0113 µM,0.000282,0.00271 µM and < 0.0111 µM,–,0.00183 µM and 0.0166 µM,0.00111,–,–,–,0.0125,–,–,–,–,–,–,–
N#C/C(=C\c1ccc(Br)cc1)n1nnc2cccc(F)c21,2.75,13.2,3.35,–,–,1.92 µM,2.64,3.51 µM,3.45,1.41,2.8,1.51,3.31,1.63,–,–,0.614,1.08,1.86,1.73
CCCCn1c2c(c3ccccc3c1=O)C(=O)c1ccccc1-2,> 100,> 100,–,> 100 µM,> 100,> 100 µM,–,> 100 µM,> 100,–,–,–,> 100,–,–,–,–,–,–,–
COc1cccc(/C=C/C(=O)c2ccc(Cl)cc2Cl)c1OC,28.1,24.7,14.9,5.85 µM,–,6.88 µM,15.8,41.5 µM,29,13.3,10.4,2.74,13.1,4.15,2.31,–,2.64,4.07,14.1,12.9
CC1=C(C(=O)Nc2ccccc2C)C(c2ccc([N+](=O)[O-])cc2)C(C(=O)Nc2ccccc2C)=C(C)N1,> 100,> 100,> 100,–,> 100,> 100 µM,88.2,> 100 µM,> 100,–,–,–,> 100,–,–,–,–,–,–,–
CC12O[C@H](c3ccccc3)[C@H](c3ccccc3)N1C(=O)C1(C(=O)OCc3ccccc3)CC12 (some centres not stated),> 100,> 100,> 100,> 100 µM,> 100,> 100 µM,–,> 100 µM,–,–,–,–,> 100,–,–,–,–,–,–,–
Cc1c(O)c(=O)ccn1C1OC(CO)C(O)C1O (configuration not stated),> 100,> 100,> 100,> 100 µM,> 100,> 100 µM,> 100,> 100 µM,–,–,–,–,> 100,–,–,–,–,–,–,–
N#Cc1c[nH]n2ccnc12,> 100,> 100,> 100,> 100 µM,> 100,–,–,> 100 µM,–,–,–,–,> 100,–,–,–,–,–,–,–
N/N=C1\c2ccccc2C2/C(=N\N)c3ccccc3C12 (configuration not stated),> 100,> 100,> 100,–,> 100,> 100 µM,> 100,> 100 µM,> 100,–,–,–,> 100,–,–,–,–,–,–,–
